Results: EP0012051A1, “3-Amino-2,4-dioxo-(1H,3H)-quinazolines, process for their preparation and therapeutic composition containing them” (Société dite: BERRI-BALZAC, priority 1978, dated 1980)

What was measured:
Assay type in all cases: in vivo
RAT = experiment: Diuretic action with water-and-sodium overload in the rat; details: for fuite de potassium: rat
Excerpt: (§1) L'étude de l'activité diurétique a été effectuée comme suit : • l'expérience a été réalisée en utilisant la technique de LIPSCHITZ & Coll. (J. Pharm. Exp. Ther. 1943, 79, p. 97) modifiée pour la circonstance.
(§2) Des lots de 6 rats mâles, pesant environ 150 g, mis à jeun et privés de boisson la veille de l'essai, ont été placés par deux dans des cages à métabolisme pour une durée de 6 heures.
(§3) Les volumes urinaires ont été recueillis et mesurés toutes les heures, et la quantité d'urine excrétée est donnée en ml par heure et par rat.
(§4) Les dosages du chlore, du sodium et du potassium sont effectués sur les prélèvements de 6 heures et sont exprimés en Meq par litre d'urine et par 100 g de rat.
(§5) A partir de ces chiffres et par rapport aux témoins, des pourcentages d'augmentation ou de diminution de la diurèse ont pu être calculés.
Dans le tableau II figure l'action diurétique avec surcharge hydrosodée pour le composé A et le furosémide.

chien Beagle = experiment: Diuresis in the Beagle dog after injection, urine output over one hour; details: for Emission d'urine en ml TOTAL: TOTAL (60 mn)
rats mâles = experiment: Diuretic action with water overload in the rat (modified Lipschitz technique, oral); details: for K = nbre de meq/L pour 100 g d'animal / Na = nbre de meq/L pour 100 g d'animal / dV = pourcentage du volume d'urine émise par rapport au lot témoin et ramené à 100 g de poids corporel: rat, oral, surcharge hydrique; for K = nbre de meq/L pour 100 g d'animal / Na = nbre de meq/L pour 100 g d'animal: 6 h urine; for dV = pourcentage du volume d'urine émise par rapport au lot témoin et ramené à 100 g de poids corporel: 6 h; for diurèse: summary in words of tableaux I à III
Excerpt: as §1, §2
Les produits à essayer ont été administrés par voie orale, à la sonde, en même temps qu'une surcharge hydrique (eau du robinet à 37 °C), à raison de 5 ml pour 100 g de poids corporel.
as §3, §4, §5
L'excrétion urinaire est donnée par le rapport : [formula]
L'activité diurétique est obtenue en faisant le rapport : • E.U. traités • E.U. témoins
Dans le tableau I figure l'action diurétique avec surcharge hydrique pour les composés A, B et C, et pour le furosémide et l'hydrochlorothiazide.

[1] = 2 mg/kg, une heure, versus témoin

CN(C)n1c(=O)[nH]c2cc(Cl)c(S(N)(=O)=O)cc2c1=O [Composé A, Chloro-7 diméthylamino-3 dioxo-2,4 (1H,3H) sulfonamido-6 quinazoline]
action diurétique par rapport au furosémide (RAT; 10 mg/kg composé A sensiblement égale à 25 mg/kg de furosémide): sensiblement double | fuite de potassium (RAT; dose 10 mg/kg (doses équivalentes)): 19% | sodium éliminé dans le volume d'urine émis (chien Beagle; 2 mg/kg, une heure): ~10 fois celui du témoin | la diurèse est multipliée par (chien Beagle; [1]): 600/100 | taux de potassium multiplié par (chien Beagle; [1]): 1,2 | Emission d'urine en ml 0,5 mn (chien Beagle; Dose I.V. 1 mg/kg, 0,5 mn): 3,5 ml | Emission d'urine en ml 5-10 mn (chien Beagle; Dose I.V. 1 mg/kg): 5,0 ml | Emission d'urine en ml - 20 mn (chien Beagle; Dose I.V. 1 mg/kg): 8,5 ml | Emission d'urine en ml - 30 mn (chien Beagle; Dose I.V. 1 mg/kg): 7,0 ml | Emission d'urine en ml - 40 mn (chien Beagle; Dose I.V. 1 mg/kg): 9,0 ml | Emission d'urine en ml - 50 mn (chien Beagle; Dose I.V. 1 mg/kg): 8,0 ml | Emission d'urine en ml - 60mn (chien Beagle; Dose I.V. 1 mg/kg): 9,0 ml | Emission d'urine en ml TOTAL (chien Beagle; Dose I.V. 1 mg/kg): 50,0 ml | Emission d'urine en ml 0,5 mn (chien Beagle; Dose I.V. 2 mg/kg, 0,5 mn): 8,0 ml | Emission d'urine en ml 5-10 mn (chien Beagle; Dose I.V. 2 mg/kg): 14,5 ml | Emission d'urine en ml - 20 mn (chien Beagle; Dose I.V. 2 mg/kg): 20,5 ml | Emission d'urine en ml - 30 mn (chien Beagle; Dose I.V. 2 mg/kg): 18,5 ml | Emission d'urine en ml - 40 mn (chien Beagle; Dose I.V. 2 mg/kg): 15,5 ml | Emission d'urine en ml - 50 mn (chien Beagle; Dose I.V. 2 mg/kg): 11,5 ml | Emission d'urine en ml - 60mn (chien Beagle; Dose I.V. 2 mg/kg): 8,5 ml | Emission d'urine en ml TOTAL (chien Beagle; Dose I.V. 2 mg/kg): 97,0 ml | Emission d'urine en ml 0,5 mn (chien Beagle; Dose I.V. 5 mg/kg, 0,5 mn): 9,5 ml | Emission d'urine en ml 5-10 mn (chien Beagle; Dose I.V. 5 mg/kg): 10,5 ml | Emission d'urine en ml - 20 mn (chien Beagle; Dose I.V. 5 mg/kg): 10,0 ml | Emission d'urine en ml - 30 mn (chien Beagle; Dose I.V. 5 mg/kg): 8,0 ml | Emission d'urine en ml - 40 mn (chien Beagle; Dose I.V. 5 mg/kg): 9,0 ml | Emission d'urine en ml - 50 mn (chien Beagle; Dose I.V. 5 mg/kg): 5,5 ml | Emission d'urine en ml - 60mn (chien Beagle; Dose I.V. 5 mg/kg): 7,0 ml | Emission d'urine en ml TOTAL (chien Beagle; Dose I.V. 5 mg/kg): 59,5 ml | Emission d'urine en ml 0,5 mn (chien Beagle; Dose I.V. 10 mg/kg, 0,5 mn): 4,0 ml | Emission d'urine en ml 5-10 mn (chien Beagle; Dose I.V. 10 mg/kg): 8,0 ml | Emission d'urine en ml - 20 mn (chien Beagle; Dose I.V. 10 mg/kg): 9,0 ml | Emission d'urine en ml - 30 mn (chien Beagle; Dose I.V. 10 mg/kg): 10,0 ml | Emission d'urine en ml - 40 mn (chien Beagle; Dose I.V. 10 mg/kg): 4,0 ml | Emission d'urine en ml - 50 mn (chien Beagle; Dose I.V. 10 mg/kg): 8,0 ml | Emission d'urine en ml - 60mn (chien Beagle; Dose I.V. 10 mg/kg): 7,5 ml | Emission d'urine en ml TOTAL (chien Beagle; Dose I.V. 10 mg/kg): 50,5 ml | dose avec laquelle la diurèse maximale au bout d'une heure est atteinte (chien Beagle; voie I.P., une heure): 2 mg/kg | K = nbre de meq/L pour 100 g d'animal (rats mâles; dose 0,1 mg/kg): +19 meq/L pour 100 g d'animal | K = nbre de meq/L pour 100 g d'animal (rats mâles; dose 1 mg/kg): +18 meq/L pour 100 g d'animal | Na = nbre de meq/L pour 100 g d'animal (rats mâles; dose 1 mg/kg): +139,4 meq/L pour 100 g d'animal | dV = pourcentage du volume d'urine émise par rapport au lot témoin et ramené à 100 g de poids corporel (rats mâles; dose 10 mg/kg): +38,3% | K = nbre de meq/L pour 100 g d'animal (rats mâles; dose 10 mg/kg): +71 meq/L pour 100 g d'animal | Na = nbre de meq/L pour 100 g d'animal (rats mâles; dose 10 mg/kg): +551 meq/L pour 100 g d'animal | dV = pourcentage du volume d'urine émise par rapport au lot témoin et ramené à 100 g de poids corporel (rats mâles; dose 25 mg/kg): +39,7% | K = nbre de meq/L pour 100 g d'animal (rats mâles; dose 25 mg/kg): +67 meq/L pour 100 g d'animal | Na = nbre de meq/L pour 100 g d'animal (rats mâles; dose 25 mg/kg): +672 meq/L pour 100 g d'animal | dV = pourcentage du volume d'urine émise par rapport au lot témoin et ramené à 100 g de poids corporel (rats mâles; dose 50 mg/kg): +23,6% | K = nbre de meq/L pour 100 g d'animal (rats mâles; dose 50 mg/kg): +90 meq/L pour 100 g d'animal | Na = nbre de meq/L pour 100 g d'animal (rats mâles; dose 50 mg/kg): +606 meq/L pour 100 g d'animal | diurèse (rats mâles): augmentent la diurèse

CCN(CC)n1c(=O)[nH]c2cc(Cl)c(S(N)(=O)=O)cc2c1=O [Composé B, Chloro-7 diéthylamino-3 dioxo-2,4 (1H,3H) sulfonamido-6 quinazoline]
K = nbre de meq/L pour 100 g d'animal (rats mâles; dose 1 mg/kg): +15 meq/L pour 100 g d'animal | Na = nbre de meq/L pour 100 g d'animal (rats mâles; dose 1 mg/kg): +160 meq/L pour 100 g d'animal | dV = pourcentage du volume d'urine émise par rapport au lot témoin et ramené à 100 g de poids corporel (rats mâles; dose 10 mg/kg): +30% | K = nbre de meq/L pour 100 g d'animal (rats mâles; dose 10 mg/kg): +35 meq/L pour 100 g d'animal | Na = nbre de meq/L pour 100 g d'animal (rats mâles; dose 10 mg/kg): +582 meq/L pour 100 g d'animal | dV = pourcentage du volume d'urine émise par rapport au lot témoin et ramené à 100 g de poids corporel (rats mâles; dose 25 mg/kg): +35% | K = nbre de meq/L pour 100 g d'animal (rats mâles; dose 25 mg/kg): +33 meq/L pour 100 g d'animal | Na = nbre de meq/L pour 100 g d'animal (rats mâles; dose 25 mg/kg): +671 meq/L pour 100 g d'animal | dV = pourcentage du volume d'urine émise par rapport au lot témoin et ramené à 100 g de poids corporel (rats mâles; dose 50 mg/kg): +31% | K = nbre de meq/L pour 100 g d'animal (rats mâles; dose 50 mg/kg): +21 meq/L pour 100 g d'animal | Na = nbre de meq/L pour 100 g d'animal (rats mâles; dose 50 mg/kg): +550 meq/L pour 100 g d'animal | diurèse (rats mâles): augmentent la diurèse

NS(=O)(=O)c1cc2c(=O)n(N3CCCCC3)c(=O)[nH]c2cc1Cl [Composé C, Chloro-7 pipéridino-3 dioxo-2,4 (1H,3H) sulfonamido-6 quinazoline]
K = nbre de meq/L pour 100 g d'animal (rats mâles; dose 0,1 mg/kg): +15 meq/L pour 100 g d'animal | dV = pourcentage du volume d'urine émise par rapport au lot témoin et ramené à 100 g de poids corporel (rats mâles; dose 1 mg/kg): +15% | K = nbre de meq/L pour 100 g d'animal (rats mâles; dose 1 mg/kg): +17 meq/L pour 100 g d'animal | Na = nbre de meq/L pour 100 g d'animal (rats mâles; dose 1 mg/kg): +141 meq/L pour 100 g d'animal | dV = pourcentage du volume d'urine émise par rapport au lot témoin et ramené à 100 g de poids corporel (rats mâles; dose 10 mg/kg): +35% | K = nbre de meq/L pour 100 g d'animal (rats mâles; dose 10 mg/kg): +47 meq/L pour 100 g d'animal | Na = nbre de meq/L pour 100 g d'animal (rats mâles; dose 10 mg/kg): +513 meq/L pour 100 g d'animal | dV = pourcentage du volume d'urine émise par rapport au lot témoin et ramené à 100 g de poids corporel (rats mâles; dose 25 mg/kg): +31% | K = nbre de meq/L pour 100 g d'animal (rats mâles; dose 25 mg/kg): +42 meq/L pour 100 g d'animal | Na = nbre de meq/L pour 100 g d'animal (rats mâles; dose 25 mg/kg): +583 meq/L pour 100 g d'animal | dV = pourcentage du volume d'urine émise par rapport au lot témoin et ramené à 100 g de poids corporel (rats mâles; dose 50 mg/kg): +18% | K = nbre de meq/L pour 100 g d'animal (rats mâles; dose 50 mg/kg): +57 meq/L pour 100 g d'animal | Na = nbre de meq/L pour 100 g d'animal (rats mâles; dose 50 mg/kg): +531 meq/L pour 100 g d'animal | diurèse (rats mâles): augmentent la diurèse

NS(=O)(=O)c1cc(C(=O)O)c(NCc2ccco2)cc1Cl [Furosémide, acide chloro-4 furfurylamino-2 sulfamoyl-5 benzoïque, reference compound]
fuite de potassium (RAT; dose 25 mg/kg (doses équivalentes)): 30,3% | K = nbre de meq/L pour 100 g d'animal (rats mâles; dose 10 mg/kg): -19 meq/L pour 100 g d'animal | dV = pourcentage du volume d'urine émise par rapport au lot témoin et ramené à 100 g de poids corporel (rats mâles; dose 25 mg/kg): +18% | dV = pourcentage du volume d'urine émise par rapport au lot témoin et ramené à 100 g de poids corporel (rats mâles; dose 50 mg/kg): +76% | K = nbre de meq/L pour 100 g d'animal (rats mâles; dose 50 mg/kg): +84 meq/L pour 100 g d'animal | Na = nbre de meq/L pour 100 g d'animal (rats mâles; dose 50 mg/kg): +639 meq/L pour 100 g d'animal | diurèse (rats mâles): augmentent la diurèse

NS(=O)(=O)c1cc2c(cc1Cl)NCNS2(=O)=O [Hydrochloro-thiazide, dioxo-1,1 chloro-6 dihydro-3,4 sulfamoyl-7 (1,2,4)H benzothiadiazine, reference compound]
Na = nbre de meq/L pour 100 g d'animal (rats mâles; dose 0,1 mg/kg): +6,9 meq/L pour 100 g d'animal | dV = pourcentage du volume d'urine émise par rapport au lot témoin et ramené à 100 g de poids corporel (rats mâles; dose 1 mg/kg): +38% | K = nbre de meq/L pour 100 g d'animal (rats mâles; dose 1 mg/kg): +29 meq/L pour 100 g d'animal | Na = nbre de meq/L pour 100 g d'animal (rats mâles; dose 1 mg/kg): +374 meq/L pour 100 g d'animal | dV = pourcentage du volume d'urine émise par rapport au lot témoin et ramené à 100 g de poids corporel (rats mâles; dose 10 mg/kg): +40% | K = nbre de meq/L pour 100 g d'animal (rats mâles; dose 10 mg/kg): +22 meq/L pour 100 g d'animal | Na = nbre de meq/L pour 100 g d'animal (rats mâles; dose 10 mg/kg): +430 meq/L pour 100 g d'animal | dV = pourcentage du volume d'urine émise par rapport au lot témoin et ramené à 100 g de poids corporel (rats mâles; dose 25 mg/kg): +48% | K = nbre de meq/L pour 100 g d'animal (rats mâles; dose 25 mg/kg): +44 meq/L pour 100 g d'animal | Na = nbre de meq/L pour 100 g d'animal (rats mâles; dose 25 mg/kg): +504 meq/L pour 100 g d'animal | diurèse (rats mâles): augmentent la diurèse
